Laboratory results: ChEMBL document CHEMBL4507269, “Data for DCP probe BAY-386” (2021)

Experiments:
[1] = molecular target: Serine/threonine-protein kinase Nek3 (Homo sapiens) (UniProt P51956); details: Compound concentration 1000.0 nM
[2] = molecular target: T1, Adenosine receptor A2b (Homo sapiens) (UniProt P29275); experiment: A2B (h) Eurofins-Cerep Cellular and Nuclear Receptor Functional Assays; details: Compound concentration 10.0 uM
T1 sequence (whole entry): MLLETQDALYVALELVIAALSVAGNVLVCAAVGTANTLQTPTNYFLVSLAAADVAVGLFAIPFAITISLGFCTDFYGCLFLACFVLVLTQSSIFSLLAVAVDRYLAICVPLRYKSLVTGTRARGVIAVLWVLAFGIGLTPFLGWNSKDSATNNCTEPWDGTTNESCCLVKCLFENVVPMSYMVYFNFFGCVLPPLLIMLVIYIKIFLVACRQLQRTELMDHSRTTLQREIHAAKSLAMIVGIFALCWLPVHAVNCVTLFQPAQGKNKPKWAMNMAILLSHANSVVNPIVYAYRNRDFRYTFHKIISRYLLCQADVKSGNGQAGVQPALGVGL

[3] = molecular target: Testis-specific serine/threonine-protein kinase 3 (Homo sapiens) (UniProt Q96PN8); details: Compound concentration 1000.0 nM
[4] = molecular target: Serine/threonine-protein kinase Nek10 (Homo sapiens) (UniProt Q6ZWH5); details: Compound concentration 1000.0 nM
[5] = molecular target: BDNF/NT-3 growth factors receptor (Homo sapiens) (UniProt Q16620); details: Compound concentration 1000.0 nM
BDNF/NT-3 growth factors receptor (Homo sapiens), sequence (Q16620 32-822 limits assumed): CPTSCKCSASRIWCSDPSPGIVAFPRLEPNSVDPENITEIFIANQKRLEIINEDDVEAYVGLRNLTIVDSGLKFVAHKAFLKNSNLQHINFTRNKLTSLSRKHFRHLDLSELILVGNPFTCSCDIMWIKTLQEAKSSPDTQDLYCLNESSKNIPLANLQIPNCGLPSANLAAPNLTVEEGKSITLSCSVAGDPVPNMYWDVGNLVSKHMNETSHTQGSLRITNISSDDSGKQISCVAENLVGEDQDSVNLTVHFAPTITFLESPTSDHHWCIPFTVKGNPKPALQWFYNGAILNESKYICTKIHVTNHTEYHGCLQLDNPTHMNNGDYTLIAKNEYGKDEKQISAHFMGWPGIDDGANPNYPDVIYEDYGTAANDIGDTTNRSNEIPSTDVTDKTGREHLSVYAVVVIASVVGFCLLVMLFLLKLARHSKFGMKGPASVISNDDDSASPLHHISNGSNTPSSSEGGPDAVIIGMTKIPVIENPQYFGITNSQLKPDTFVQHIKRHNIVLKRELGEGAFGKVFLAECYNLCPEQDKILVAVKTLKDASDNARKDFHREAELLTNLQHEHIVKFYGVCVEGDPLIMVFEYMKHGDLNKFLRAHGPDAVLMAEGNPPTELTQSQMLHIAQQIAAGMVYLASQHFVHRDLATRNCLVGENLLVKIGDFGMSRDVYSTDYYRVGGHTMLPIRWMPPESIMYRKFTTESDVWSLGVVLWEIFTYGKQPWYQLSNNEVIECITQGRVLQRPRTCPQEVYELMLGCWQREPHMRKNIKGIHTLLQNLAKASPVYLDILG

[6] = molecular target: Cyclin-dependent kinase-like 5 (Homo sapiens) (UniProt O76039); details: Compound concentration 1000.0 nM
[7] = molecular target: Calcium/calmodulin-dependent protein kinase type II subunit alpha (Homo sapiens) (UniProt Q9UQM7); details: Compound concentration 1000.0 nM
Calcium/calmodulin-dependent protein kinase type II subunit alpha (Homo sapiens), sequence (Q9UQM7 whole entry): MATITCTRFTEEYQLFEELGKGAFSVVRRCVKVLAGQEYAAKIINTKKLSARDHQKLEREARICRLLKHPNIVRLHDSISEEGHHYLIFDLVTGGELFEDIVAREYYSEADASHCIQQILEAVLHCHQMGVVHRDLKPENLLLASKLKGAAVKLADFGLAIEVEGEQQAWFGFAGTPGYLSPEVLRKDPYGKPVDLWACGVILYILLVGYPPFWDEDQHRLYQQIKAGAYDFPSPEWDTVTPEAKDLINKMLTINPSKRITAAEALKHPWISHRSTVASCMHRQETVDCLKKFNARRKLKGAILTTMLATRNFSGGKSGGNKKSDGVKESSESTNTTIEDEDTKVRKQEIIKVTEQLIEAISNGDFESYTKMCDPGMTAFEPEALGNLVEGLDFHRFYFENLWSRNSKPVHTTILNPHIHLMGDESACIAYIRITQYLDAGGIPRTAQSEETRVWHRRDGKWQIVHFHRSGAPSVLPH

[8] = molecular target: Mitogen-activated protein kinase kinase kinase 1 (Homo sapiens) (UniProt Q13233); details: Compound concentration 1000.0 nM
[9] = tested on: Mast/stem cell growth factor receptor Kit (Homo sapiens), P10721 [V559D,V654A]; details: Compound concentration 1000.0 nM
[10] = molecular target: Ephrin type-B receptor 2 (Homo sapiens) (UniProt P29323); details: Compound concentration 1000.0 nM
[11] = molecular target: Serine/threonine-protein kinase PAK 5 (Homo sapiens) (UniProt Q9P286); details: Compound concentration 1000.0 nM
[12] = molecular target: Calcium/calmodulin-dependent protein kinase type IV (Homo sapiens) (UniProt Q16566); details: Compound concentration 1000.0 nM
Calcium/calmodulin-dependent protein kinase type IV (Homo sapiens), sequence (Q16566 whole entry): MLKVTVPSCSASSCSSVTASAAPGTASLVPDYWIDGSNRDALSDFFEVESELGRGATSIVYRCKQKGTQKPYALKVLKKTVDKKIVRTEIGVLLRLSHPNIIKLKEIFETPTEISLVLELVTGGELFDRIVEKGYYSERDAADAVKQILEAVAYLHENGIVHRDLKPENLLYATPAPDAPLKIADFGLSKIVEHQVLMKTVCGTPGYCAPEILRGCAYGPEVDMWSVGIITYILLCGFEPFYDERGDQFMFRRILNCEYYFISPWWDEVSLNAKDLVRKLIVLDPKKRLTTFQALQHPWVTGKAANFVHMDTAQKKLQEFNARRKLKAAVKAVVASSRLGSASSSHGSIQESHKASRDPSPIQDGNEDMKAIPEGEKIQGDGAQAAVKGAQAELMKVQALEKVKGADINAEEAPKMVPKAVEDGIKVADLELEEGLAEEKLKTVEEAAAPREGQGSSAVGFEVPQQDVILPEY

[13] = molecular target: Cyclin-dependent kinase 3 (Homo sapiens) (UniProt Q00526); details: Compound concentration 1000.0 nM
Cyclin-dependent kinase 3 (Homo sapiens), sequence (Q00526 whole entry, looked up): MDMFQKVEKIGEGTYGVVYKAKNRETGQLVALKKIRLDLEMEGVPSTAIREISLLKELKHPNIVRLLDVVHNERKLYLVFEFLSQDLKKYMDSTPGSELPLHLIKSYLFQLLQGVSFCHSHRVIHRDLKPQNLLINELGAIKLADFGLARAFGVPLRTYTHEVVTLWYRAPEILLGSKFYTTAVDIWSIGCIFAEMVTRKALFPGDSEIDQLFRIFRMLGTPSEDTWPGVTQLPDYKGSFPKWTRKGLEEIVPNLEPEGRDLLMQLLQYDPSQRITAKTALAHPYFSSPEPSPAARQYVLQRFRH

[14] = molecular target: Serine/threonine-protein kinase Nek11 (Homo sapiens) (UniProt Q8NG66); details: Compound concentration 1000.0 nM
[15] = molecular target: Serine/threonine-protein kinase tousled-like 2 (Homo sapiens) (UniProt Q86UE8); details: Compound concentration 1000.0 nM
Serine/threonine-protein kinase tousled-like 2 (Homo sapiens), sequence (Q86UE8 whole entry, looked up): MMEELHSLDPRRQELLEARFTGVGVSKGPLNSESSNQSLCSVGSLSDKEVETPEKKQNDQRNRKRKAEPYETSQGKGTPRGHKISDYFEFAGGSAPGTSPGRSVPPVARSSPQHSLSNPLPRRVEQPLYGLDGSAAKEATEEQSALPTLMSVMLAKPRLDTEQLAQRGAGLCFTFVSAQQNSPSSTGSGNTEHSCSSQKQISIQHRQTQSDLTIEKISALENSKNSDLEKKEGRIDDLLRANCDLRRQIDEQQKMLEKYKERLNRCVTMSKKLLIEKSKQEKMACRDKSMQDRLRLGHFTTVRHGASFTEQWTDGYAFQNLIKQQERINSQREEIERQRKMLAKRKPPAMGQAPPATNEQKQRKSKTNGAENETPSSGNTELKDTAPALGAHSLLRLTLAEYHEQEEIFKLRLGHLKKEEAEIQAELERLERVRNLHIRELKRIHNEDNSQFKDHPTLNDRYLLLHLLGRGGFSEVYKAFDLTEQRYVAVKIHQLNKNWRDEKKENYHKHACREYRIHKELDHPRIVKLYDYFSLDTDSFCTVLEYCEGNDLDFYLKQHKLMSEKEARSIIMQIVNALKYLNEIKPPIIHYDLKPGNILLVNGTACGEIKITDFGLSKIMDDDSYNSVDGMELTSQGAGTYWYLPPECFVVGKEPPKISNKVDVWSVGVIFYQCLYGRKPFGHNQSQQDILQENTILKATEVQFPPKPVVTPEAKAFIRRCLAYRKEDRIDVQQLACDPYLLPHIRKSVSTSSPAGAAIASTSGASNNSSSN

[16] = molecular target: Dual serine/threonine and tyrosine protein kinase (Homo sapiens) (UniProt Q6XUX3); details: Compound concentration 1000.0 nM
[17] = molecular target: Mitogen-activated protein kinase 10 (Homo sapiens) (UniProt P53779); details: Compound concentration 1000.0 nM
[18] = molecular target: T2, 5-hydroxytryptamine receptor 1A (Homo sapiens) (UniProt P08908); details: Compound concentration 10.0 uM
T2 sequence (whole entry): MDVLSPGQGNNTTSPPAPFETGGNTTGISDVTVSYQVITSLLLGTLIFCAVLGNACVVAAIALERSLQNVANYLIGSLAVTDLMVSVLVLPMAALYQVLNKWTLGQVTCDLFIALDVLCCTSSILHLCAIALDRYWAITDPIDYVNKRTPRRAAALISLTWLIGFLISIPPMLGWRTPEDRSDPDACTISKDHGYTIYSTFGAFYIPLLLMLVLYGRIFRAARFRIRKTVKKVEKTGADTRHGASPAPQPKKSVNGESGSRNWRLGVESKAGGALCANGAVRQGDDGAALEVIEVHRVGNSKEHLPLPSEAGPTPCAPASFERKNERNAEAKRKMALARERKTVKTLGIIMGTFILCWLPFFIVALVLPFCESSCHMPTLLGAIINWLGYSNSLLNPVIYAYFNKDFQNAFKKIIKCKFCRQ

[19] = molecular target: Serine/threonine-protein kinase SBK1 (Homo sapiens) (UniProt Q52WX2); details: Compound concentration 1000.0 nM
[20] = molecular target: Epidermal growth factor receptor (Homo sapiens) (UniProt P00533); details: Compound concentration 1000.0 nM
[21] = molecular target: 5'-AMP-activated protein kinase catalytic subunit alpha-2 (Homo sapiens) (UniProt P54646); details: Compound concentration 1000.0 nM
[22] = molecular target: Mitogen-activated protein kinase kinase kinase kinase 4 (Homo sapiens) (UniProt O95819); details: Compound concentration 1000.0 nM
[23] = molecular target: Mitogen-activated protein kinase kinase kinase kinase 5 (Homo sapiens) (UniProt Q9Y4K4); details: Compound concentration 1000.0 nM
[24] = molecular target: Non-receptor tyrosine-protein kinase TYK2 (Homo sapiens) (UniProt P29597); details: Compound concentration 1000.0 nM
[25] = molecular target: Tyrosine-protein kinase ZAP-70 (Homo sapiens) (UniProt P43403); details: Compound concentration 1000.0 nM
[26] = molecular target: MAP/microtubule affinity-regulating kinase 3 (Homo sapiens) (UniProt P27448); details: Compound concentration 1000.0 nM
MAP/microtubule affinity-regulating kinase 3 (Homo sapiens), sequence (P27448 whole entry, looked up): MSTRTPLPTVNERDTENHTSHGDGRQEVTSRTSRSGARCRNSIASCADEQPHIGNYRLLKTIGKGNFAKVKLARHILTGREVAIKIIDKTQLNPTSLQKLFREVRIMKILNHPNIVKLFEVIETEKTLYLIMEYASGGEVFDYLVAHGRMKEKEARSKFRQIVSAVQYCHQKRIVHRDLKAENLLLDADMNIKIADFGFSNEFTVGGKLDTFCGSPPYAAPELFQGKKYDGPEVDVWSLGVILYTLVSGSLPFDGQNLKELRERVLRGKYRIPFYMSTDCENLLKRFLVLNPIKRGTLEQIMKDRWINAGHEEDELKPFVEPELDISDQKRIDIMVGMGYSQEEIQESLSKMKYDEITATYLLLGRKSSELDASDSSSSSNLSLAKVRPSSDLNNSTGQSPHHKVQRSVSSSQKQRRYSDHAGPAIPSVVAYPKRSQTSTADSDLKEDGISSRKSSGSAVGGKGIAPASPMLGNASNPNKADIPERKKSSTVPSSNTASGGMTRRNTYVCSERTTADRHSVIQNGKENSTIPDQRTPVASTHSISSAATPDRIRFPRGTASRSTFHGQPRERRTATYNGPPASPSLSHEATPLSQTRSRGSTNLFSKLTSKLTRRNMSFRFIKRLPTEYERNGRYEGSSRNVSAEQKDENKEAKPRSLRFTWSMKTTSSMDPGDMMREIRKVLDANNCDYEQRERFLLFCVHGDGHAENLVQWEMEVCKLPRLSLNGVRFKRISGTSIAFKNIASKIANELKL

[27] = molecular target: Cyclin-dependent kinase 19 (Homo sapiens) (UniProt Q9BWU1); details: Compound concentration 1000.0 nM
[28] = molecular target: Proteinase-activated receptor 4 (Homo sapiens, UniProt Q96RI0); experiment: Functional cellular assay (HEK cells) (F2RL3)
[29] = molecular target: Mitogen-activated protein kinase kinase kinase 13 (Homo sapiens) (UniProt O43283); details: Compound concentration 1000.0 nM
[30] = molecular target: MAP kinase-interacting serine/threonine-protein kinase 2 (Homo sapiens) (UniProt Q9HBH9); details: Compound concentration 1000.0 nM
[31] = molecular target: Macrophage-stimulating protein receptor (Homo sapiens) (UniProt Q04912); details: Compound concentration 1000.0 nM
Macrophage-stimulating protein receptor (Homo sapiens), sequence (Q04912 25-304 limits assumed): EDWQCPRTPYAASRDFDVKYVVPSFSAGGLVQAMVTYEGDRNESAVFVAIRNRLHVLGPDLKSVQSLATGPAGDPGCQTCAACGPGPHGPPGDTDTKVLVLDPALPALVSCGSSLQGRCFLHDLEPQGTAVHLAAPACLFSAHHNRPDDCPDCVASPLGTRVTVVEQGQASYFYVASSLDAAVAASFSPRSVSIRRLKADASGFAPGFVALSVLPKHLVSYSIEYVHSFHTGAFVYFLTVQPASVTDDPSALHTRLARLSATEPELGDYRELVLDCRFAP
Macrophage-stimulating protein receptor (Homo sapiens), sequence (Q04912 310-1400 limits assumed): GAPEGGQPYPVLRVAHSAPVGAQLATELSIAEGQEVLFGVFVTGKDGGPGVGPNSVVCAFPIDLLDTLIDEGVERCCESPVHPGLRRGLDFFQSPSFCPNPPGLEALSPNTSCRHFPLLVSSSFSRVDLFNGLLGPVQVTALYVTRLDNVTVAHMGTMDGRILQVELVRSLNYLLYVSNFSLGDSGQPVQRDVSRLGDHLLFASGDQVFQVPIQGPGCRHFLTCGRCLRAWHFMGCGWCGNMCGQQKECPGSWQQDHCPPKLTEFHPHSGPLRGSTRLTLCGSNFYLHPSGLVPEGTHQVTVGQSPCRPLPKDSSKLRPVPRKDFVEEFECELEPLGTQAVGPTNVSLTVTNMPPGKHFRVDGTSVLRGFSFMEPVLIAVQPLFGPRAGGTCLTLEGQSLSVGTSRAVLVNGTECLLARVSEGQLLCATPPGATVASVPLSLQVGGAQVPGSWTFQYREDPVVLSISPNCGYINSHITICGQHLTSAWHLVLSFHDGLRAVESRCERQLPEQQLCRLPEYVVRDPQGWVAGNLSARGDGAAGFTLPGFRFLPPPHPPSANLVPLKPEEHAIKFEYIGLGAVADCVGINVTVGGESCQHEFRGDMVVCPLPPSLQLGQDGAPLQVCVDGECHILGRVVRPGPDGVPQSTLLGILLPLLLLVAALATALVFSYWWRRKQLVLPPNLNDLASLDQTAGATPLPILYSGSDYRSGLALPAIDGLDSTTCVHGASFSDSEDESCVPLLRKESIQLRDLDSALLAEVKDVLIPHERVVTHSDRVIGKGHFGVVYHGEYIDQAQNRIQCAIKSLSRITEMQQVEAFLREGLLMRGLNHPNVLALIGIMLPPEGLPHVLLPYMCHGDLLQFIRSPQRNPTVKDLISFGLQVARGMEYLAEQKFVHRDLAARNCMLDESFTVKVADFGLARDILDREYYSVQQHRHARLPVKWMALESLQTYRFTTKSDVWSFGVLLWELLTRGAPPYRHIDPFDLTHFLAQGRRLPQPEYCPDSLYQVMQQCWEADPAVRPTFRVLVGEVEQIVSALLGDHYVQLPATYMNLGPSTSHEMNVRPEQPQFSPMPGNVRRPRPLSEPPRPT

[32] = tested on: Receptor-type tyrosine-protein kinase FLT3 (Homo sapiens), P36888 [D835H]; details: Compound concentration 1000.0 nM
[33] = molecular target: Cyclin-dependent kinase 4 (Homo sapiens) (UniProt P11802); details: Compound concentration 1000.0 nM
[34] = molecular target: Tyrosine-protein kinase receptor Tie-1 (Homo sapiens) (UniProt P35590); details: Compound concentration 1000.0 nM

| SMILES | residual activity [1] [%] | % Inhibition of Control Agonist Response (Mean n=2) [2] [%] | % of Control Agonist Response (Mean n=2) [2] [%] | residual activity [3] [%] | residual activity [4] [%] | residual activity [5] [%] | residual activity [6] [%] | residual activity [7] [%] | residual activity [8] [%] | residual activity [9] [%] | residual activity [10] [%] | residual activity [11] [%] | residual activity [12] [%] | residual activity [13] [%] | residual activity [14] [%] | residual activity [15] [%] | residual activity [16] [%] | residual activity [17] [%] | inhibition [18] [%] | residual activity [19] [%] | other results |
| --- | --- | --- | --- | --- | --- | --- | --- | --- | --- | --- | --- | --- | --- | --- | --- | --- | --- | --- | --- | --- | --- |
| O=C(N1CCS(=O)(=O)CC1)N1C[C@H](c2ccc(OC(F)(F)F)cc2)C[C@H](c2nc(C3CC3)no2)C1 [BAY-386] | 100 | -0.3 | 3.5 | 100 | 81 | 94 | 100 | 100 | 100 | 100 | 100 | 100 | 91 | 96 | 100 | 100 | 100 | 79 | 14.7 | 90 | residual activity [20]: 100%; residual activity [21]: 100%; residual activity [22]: 100%; residual activity [23]: 100%; residual activity [24]: 53%; residual activity [25]: 90%; residual activity [26]: 98%; residual activity [27]: 100%; IC50 [28]: > 10 µM (not active); residual activity [29]: 98%; residual activity [30]: 94%; residual activity [31]: 100%; residual activity [32]: 92%; residual activity [33]: 18%; residual activity [34]: 100% |
| Cc1noc([C@H]2C[C@@H](c3ccc(C(F)(F)F)cc3)CN(C(=O)N3CCS(=O)(=O)C3)C2)n1 [BAY-448] | 73 | -8.5 | 1.5 | 100 | 84 | 83 | 100 | 100 | 100 | 100 | 100 | 100 | 95 | 100 | 100 | 100 | 94 | 88 | -4.52 | 100 | residual activity [20]: 100%; residual activity [21]: 66%; residual activity [22]: 100%; residual activity [23]: 100%; residual activity [24]: 100%; residual activity [25]: 100%; residual activity [26]: 100%; residual activity [27]: 100%; IC50 [28]: > 5 µM (not active); residual activity [29]: 100%; residual activity [30]: 100%; residual activity [31]: 100%; residual activity [32]: 100%; residual activity [33]: 100%; residual activity [34]: 89% |
